Here are results for 19 compounds from BindingDB's records for doi:10.1016/j.bioorg.2015.07.005 (Birla Institute of Technology, 2015).

Chain of Genome polyprotein (P14340 1346-1475 limits assumed): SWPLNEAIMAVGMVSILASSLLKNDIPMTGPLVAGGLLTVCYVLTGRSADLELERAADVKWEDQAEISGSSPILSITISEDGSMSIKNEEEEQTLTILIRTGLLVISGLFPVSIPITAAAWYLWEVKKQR
Chain of Genome polyprotein (P14340 1476-2093 limits assumed): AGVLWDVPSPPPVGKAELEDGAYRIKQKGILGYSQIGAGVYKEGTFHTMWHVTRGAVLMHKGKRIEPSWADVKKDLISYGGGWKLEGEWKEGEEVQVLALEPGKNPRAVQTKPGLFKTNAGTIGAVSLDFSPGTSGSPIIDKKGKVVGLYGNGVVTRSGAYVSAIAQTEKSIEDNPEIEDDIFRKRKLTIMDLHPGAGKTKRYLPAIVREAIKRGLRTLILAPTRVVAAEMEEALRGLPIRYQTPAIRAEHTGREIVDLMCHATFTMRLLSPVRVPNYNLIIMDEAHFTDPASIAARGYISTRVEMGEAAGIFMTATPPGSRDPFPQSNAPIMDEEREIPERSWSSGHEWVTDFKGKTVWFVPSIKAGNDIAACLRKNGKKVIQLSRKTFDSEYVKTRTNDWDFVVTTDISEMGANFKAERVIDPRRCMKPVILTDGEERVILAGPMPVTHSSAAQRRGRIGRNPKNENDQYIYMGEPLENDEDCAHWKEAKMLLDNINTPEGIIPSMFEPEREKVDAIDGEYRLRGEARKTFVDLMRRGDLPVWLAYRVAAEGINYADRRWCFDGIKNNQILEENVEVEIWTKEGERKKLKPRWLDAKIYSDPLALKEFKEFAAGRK

In the assay the target is Genome polyprotein (Dengue virus type 2 (strain Thailand/NGS-C/1944), UniProt P14340). The assay is described as follows: DENV2 Protease Assay. To be noted: pH 8.5. The method, then:
To measure the inhibitory activities of the compounds, the DENV2 NS2B-NS3 protease activities were measured in the presence of the compounds using Bz-Nle-Lys-Arg-Arg-AMC as a substrate. The enzyme concentration in the assay was 125 nM, and the substrate concentration was 20 µM in 10 mM Tris-HCl pH 8.5, 20% glycerol, and 1 mM CHAPS. The inhibitor concentrations were 100 µM for the first round and between 3.125 and 400 µM for the compounds 16 and 19 in the second round. Before adding the substrate, the enzyme and the inhibitors were incubated at 37 °C for 15 min. All reactions were performed in 96-well plates with a final volume of 50 µL per each wells using the FLx800 fluorescence microplate reader (excitation = 380 nm; emission = 460 nm).
One may read the IC50 as the concentration at which inhibition is half-maximal. A low value points to greater potency in that assay. For `S=C(Nc1ccc(C(c2c[nH]c3ccccc23)c2c[nH]c3ccccc23)cc1)Nc1cccc(Br)c1`, the half-maximal inhibitory concentration (IC50) is > 100 µM.

For `CN1CCN(S(=O)(=O)c2ccc(N3C(=O)c4ccccc4C3=O)cc2)CC1` [2-(4-(4-Methylpiperazin-1-ylsulphonyl)phenyl)isoindoline-1,3-dione (6)], the IC50 was > 100 µM.

`O=C1c2ccccc2C(=O)N1c1ccc(S(=O)(=O)N2CCCCC2)cc1` [2-(4-(Piperidin-1-ylsulphonyl)phenyl)isoindoline-1,3-dione (5)]: the IC50 is > 100 µM.

Turning to `CN(C)S(=O)(=O)c1ccc(N2C(=O)c3ccccc3C2=O)cc1` [4-(1,3-Dioxoisoindolin-2-yl)-N,N-dimethyl benzenesulphonamide (2)], the IC50 is > 100 µM.

With `O=C1c2ccccc2C(=O)N1c1ccc(S(=O)(=O)Nc2ccccc2O)cc1` [4-(1,3-Dioxoisoindolin-2-yl)-N-(2-hydroxyphenyl)benzenesulphonamide (8)], the IC50 was > 100 µM.

As for `COc1cccc(NS(=O)(=O)c2ccc(N3C(=O)c4ccccc4C3=O)cc2)c1` [4-(1,3-Dioxoisoindolin-2-yl)-N-(3-methoxyphenyl)benzenesulphonamide (9)], the half-maximal inhibitory concentration (IC50) was > 100 µM.

In the case of `CCc1ccc(NS(=O)(=O)c2ccc(N3C(=O)c4ccccc4C3=O)cc2)cc1` [4-(1,3-Dioxoisoindolin-2-yl)-N-(4-ethylphenyl)benzenesulphonamide (16)], the IC50 is 48.2 µM.

Regarding `COc1ccc(NS(=O)(=O)c2ccc(N3C(=O)c4ccccc4C3=O)cc2)cc1` [4-(1,3-Dioxoisoindolin-2-yl)-N-(4-methoxyphenyl)benzenesulphonamide (10)], the IC50 was > 100 µM.

`O=C1c2ccccc2C(=O)N1c1ccc(S(=O)(=O)Nc2ccc([N+](=O)[O-])cc2)cc1` [4-(1,3-Dioxoisoindolin-2-yl)-N-(4-nitrophenyl)benzenesulphonamide (17)]: the concentration for half-maximal inhibition (IC50) is > 100 µM.

Take `O=C1c2ccccc2C(=O)N1c1ccc(S(=O)(=O)Nc2cccc3ccccc23)cc1` [4-(1,3-Dioxoisoindolin-2-yl)-N-(naphthalen-1-yl)benzenesulphonamide (19)]: the IC50 came out at 122 µM.

As to `Cc1cccc(NS(=O)(=O)c2ccc(N3C(=O)c4ccccc4C3=O)cc2)c1` [4-(1,3-Dioxoisoindolin-2-yl)-N-m-tolylbenzenesulphonamide (14)], the concentration for half-maximal inhibition (IC50) was > 100 µM.

As for `Cc1ccccc1NS(=O)(=O)c1ccc(N2C(=O)c3ccccc3C2=O)cc1` [4-(1,3-Dioxoisoindolin-2-yl)-N-o-tolylbenzenesulphonamide (13)], the IC50 is > 100 µM.

Regarding `Cc1ccc(NS(=O)(=O)c2ccc(N3C(=O)c4ccccc4C3=O)cc2)cc1` [4-(1,3-Dioxoisoindolin-2-yl)-N-p-tolylbenzenesulphonamide (15)], the IC50 was > 100 µM.

As to `O=C1c2ccccc2C(=O)N1c1ccc(S(=O)(=O)NCCc2ccccc2)cc1` [4-(1,3-Dioxoisoindolin-2-yl)-N-phenethylbenzenesulphonamide (20)], the IC50 was > 100 µM.

As to `O=C1c2ccccc2C(=O)N1c1ccc(S(=O)(=O)Nc2ccccc2)cc1` [4-(1,3-Dioxoisoindolin-2-yl)-N-phenylbenzenesulphonamide (7)], the 50% inhibitory concentration (IC50) is > 100 µM.

For the compound `NS(=O)(=O)c1ccc(N2C(=O)c3ccccc3C2=O)cc1` [4-(1,3-Dioxoisoindolin-2-yl)benzenesulphonamide (1)], the IC50 is > 100 µM.

Regarding `O=C(O)c1ccc(NS(=O)(=O)c2ccc(N3C(=O)c4ccccc4C3=O)cc2)cc1` [4-(4-(1,3-Dioxoisoindolin-2-yl)phenylsulphonamido)benzoic acid (18)], the IC50 was > 100 µM.

On to `O=C1c2ccccc2C(=O)N1c1ccc(S(=O)(=O)Nc2cccc(Cl)c2)cc1` [N-(3-chlorophenyl)-4-(1,3-dioxoisoindolin-2-yl)benzenesulphonamide (11)], for which the concentration for half-maximal inhibition (IC50) is > 100 µM.

Take `O=C1c2ccccc2C(=O)N1c1ccc(S(=O)(=O)Nc2ccc(Cl)cc2)cc1` [N-(4-chlorophenyl)-4-(1,3-dioxoisoindolin-2-yl)benzenesulphonamide (12)]: the 50% inhibitory concentration (IC50) is > 100 µM.
